Test results from PubChem BioAssay (NCI).
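Test compounds were applied to cells in 96-well plates for 48 hours at 5 doses. TGI is the concentration that stops growth completely.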

Columns and labels:
Test in all cases: NCI tumour cell line growth inhibition, 48 h
BT-549 breast = system: BT-549 breast
LOX IMVI melanoma = system: LOX IMVI melanoma
NCI-H460 lung = system: NCI-H460 lung
OVCAR-5 ovarian = system: OVCAR-5 ovarian
OVCAR-8 ovarian = system: OVCAR-8 ovarian
SF-268 CNS = system: SF-268 CNS
SF-295 CNS = system: SF-295 CNS
SK-OV-3 ovarian = system: SK-OV-3 ovarian
SN12C renal = system: SN12C renal
T-47D breast = system: T-47D breast

Row | Structure (SMILES) | TGI (BT-549 breast) [µM] | TGI (LOX IMVI melanoma) [µM] | TGI (NCI-H460 lung) [µM] | TGI (OVCAR-5 ovarian) [µM] | TGI (OVCAR-8 ovarian) [µM] | TGI (SF-268 CNS) [µM] | TGI (SF-295 CNS) [µM] | TGI (SK-OV-3 ovarian) [µM] | TGI (SN12C renal) [µM] | TGI (T-47D breast) [µM]
1 | CCC1=C(C)C2=NC1=CC1=NC(=C(CC)/C1=C/O)C=C1N=C3C(=C1C)C(=O)C(C(=O)OC)C3=C1NC(=C2)C(C)C1CCC(=O)OC (centres undefined) | > 100 | > 100 | > 100 | > 100 | > 100 | > 100 | > 100 | > 100 | > 100 | > 100
2 | COc1ccc2c(c1)CC[C@@H]1C2CC[C@]2(C)OC(=O)CCC12 (some centres undefined) | 23.6 | 19.4 | > 100 | 30.9 | 28.4 | 26.6 | 46.1 | > 100 | 29.1 | > 100
3 | Cc1ccc(S(=O)(=O)OC2CN3CCC2CC3)cc1 (centres undefined) | > 100 | > 100 | > 100 | > 100 | > 100 | > 100 | > 100 | > 100 | > 100 | > 100
4 | Cc1cn2c(/C=C3/C(=O)Nc4ccccc43)c(-c3ccccc3)nc2s1 | > 100 | > 100 | > 100 | > 100 | > 100 | > 100 | > 100 | 76.4 | > 100 | > 100
5 | CC(=O)OCc1ccc(-c2nc(C#N)c(N)o2)o1 | > 10 | > 10 | > 10 | – | > 10 | > 10 | > 10 | > 10 | > 10 | > 10
6 | CC(C)(C)[C@@H]1NC(=O)CN1C(=O)OCc1ccccc1 | > 100 | > 100 | > 100 | > 100 | > 100 | > 100 | > 100 | > 100 | > 100 | > 100
7 | CCOc1ccc(N=NC2C(=O)N(C(=O)CC(=O)Nc3ccc(Cl)cc3)N=C2C)cc1 (centres undefined) | > 100 | > 100 | > 100 | > 100 | > 100 | > 100 | > 100 | > 100 | > 100 | > 100
8 | COc1ccc(N(C(=O)OC(C)(C)C)[C@@H]2C(C)=C[C@H]([S@@](=O)c3ccc(C)cc3)[C@@H]3C(=O)N(C)C(=O)[C@@H]32)cc1 | 33.9 | 17.5 | > 100 | 43.1 | 46.7 | 33.9 | 35.9 | 30.3 | 32.2 | 99.8
9 | CC(=O)NC1C(OCC(=O)NC(C)C(=O)NC(CCC(=O)NCCCCCNc2ccc([N+](=O)[O-])c3[nH]c4ccccc4c(=O)c23)C(N)=O)C(O)C(CO)OC1(C)OCc1ccccc1 (centres undefined) | > 50 | > 50 | > 50 | > 50 | > 50 | > 50 | > 50 | > 50 | > 50 | > 50
10 | CCCCCCc1cc(C=O)sc1-c1ccc(-c2sc(-c3ccc(-c4ccc(-c5cc(CCCCCC)c(-c6ccc(-c7sc(C=O)cc7CCCCCC)s6)s5)s4)s3)cc2CCCCCC)s1 | > 100 | > 100 | > 100 | > 100 | > 100 | > 100 | > 100 | > 100 | > 100 | > 100
